Results reported in patent publication US20140127292A1, “PHARMACEUTICAL COMPOSITIONS FOR THE ORAL ADMINISTRATION OF HEPARIN OR DERIVATIVES THEREOF” (Cosmo Technologies Limited, priority 2001, published 2014).

System: colitis induced by trinitrobenzene sulfonic acid (TNBS)
Experiment: in vivo test: TNBS-induced colitis in rats, intracolonic treatment
Conditions: for Colon weight: 10 cm distal colon; for Colon weight / Macroscopic score / Necrosis areas (Mucosal Damage Area, MDA): day 4; for Body weight variation / Final body weight: days 1-3, day 4; for Macroscopic score / Necrosis areas (Mucosal Damage Area, MDA): distal colon
Experimental: 70 Wister male rats were kept fasted for 20 hours before the induction of colitis. In the morning of the experiment (day 0), the rats were injected with a 40% solution of ethanol containing 30 mg of trinitrobenzene sulfonic acid (TNBS) by means of a single intracolonic injection. On days 1, 2 and 3 after the induction of colitis, Dalteparin sodium suspended in 0.25 mL of a 1% sodium cholate in saline (0.3 mg/rat, 0.6 mg/rat and 0.9 mg/rat), or 0.25 mL of vehicle (1% sodium cholate in saline) were instilled intracolonically. An additional group constituted by 4 untreated rats was also included. On day 4 from the induction of colitis, animals were euthanized and autopsy was performed. The colon have been isolated and 10 cm of the distal portion have been resected and weighted. […] The results, summarized in the table below, have been compared with those obtained from the control animals.

[1] = 0.6 mg/rat/die intracolonic, listed as dalteparin sodium

Q: What does the source list for Dalteparin sodium?
A: Mortality (0.3 mg/rat/die intracolonic): 0%; Colon weight (0.3 mg/rat/die intracolonic): 1.72 ± 0.30 g; Colon weight (0.3 mg/rat/die intracolonic, listed as dalteparin sodium): 1.72 ± 0.30 g; Body weight variation (0.3 mg/rat/die intracolonic): −21%; Final body weight (0.3 mg/rat/die intracolonic): 166 ± 14 g; Macroscopic score (0.3 mg/rat/die intracolonic): 5.6 ± 0.52; Necrosis areas (Mucosal Damage Area, MDA) (0.3 mg/rat/die intracolonic): 463.4 ± 89.6 mm^2; Mortality (0.6 mg/rat/die intracolonic): 10%; Colon weight (0.6 mg/rat/die intracolonic): 1.80 ± 0.38 g; Body weight variation (0.6 mg/rat/die intracolonic): −15%; Final body weight (0.6 mg/rat/die intracolonic): 180 ± 17 g; Macroscopic score (0.6 mg/rat/die intracolonic): 4.9 ± 1.05; Necrosis areas (Mucosal Damage Area, MDA) (0.6 mg/rat/die intracolonic): 309.9 ± 155.8 mm^2; Macroscopic score [1]: 4.9±1.05; Necrosis areas (Mucosal Damage Area, MDA) [1]: 309.9±155.8 mm^2; Mortality (0.9 mg/rat/die intracolonic): 10%; Colon weight (0.9 mg/rat/die intracolonic): 1.76 ± 0.22 g; Colon weight (0.9 mg/rat/die intracolonic, listed as dalteparin sodium): 1.76 ± 0.22 g; Body weight variation (0.9 mg/rat/die intracolonic): −17%; Final body weight (0.9 mg/rat/die intracolonic): 176 ± 15 g; Macroscopic score (0.9 mg/rat/die intracolonic): 5.8 ± 0.44; Necrosis areas (Mucosal Damage Area, MDA) (0.9 mg/rat/die intracolonic): 492.5 ± 104.6 mm^2; overall effect of treatment on the considered parameters (0.3, 0.6 and 0.9 mg/rat intracolonic, versus vehicle control group): effective in reducing all the considered parameters
